# Laboratory results from patent US8053418B2, “Anti-penicillin resistant pneumococci agent and novel 16-membered macrolide derivative” (Microbial Chemistry Research Foundation, priority 2005, dated 2011).
# Where two headings read alike, the source gives them in different places.
# Experiments:
# Assay type in all cases: cell-based
# [1] = tested on: Streptococcus pneumoniae IMC B-0919 (PRSP); experiment: Antimicrobial activity test (MIC), clinical isolate IMC B-0919
# Protocol: (§1) Using Streptococcus pneumoniae that include clinical isolates of PRSP, the antimicrobial activity of each of the prepared anti-PRSP agents was measured in accordance with the “determination method of minimum inhibitory concentration of drug against bacteria” of Japanese Society of Chemotherapy (for re-revised version, see Chemotherapy 29; 76, 1981).
# (§2) 11 test strains of Streptococcus pneumoniae including IMC B-0919 are all clinical isolates, of which 2 strains, IMC B-0921 and IMC B-1229, are classified into penicillin susceptible Streptococcus pneumoniae (PSSP) and the remaining 9 strains are classified into penicillin-resistant Streptococcus pneumoniae (PRSP) (according to NCCLS standards).
# [2] = tested on: Streptococcus pneumoniae IMC B-0920 (PRSP); experiment: Antimicrobial activity test (MIC), clinical isolate IMC B-0920
# Protocol: as §1, §2
# [3] = tested on: Streptococcus pneumoniae IMC B-0922 (PRSP); experiment: Antimicrobial activity test (MIC), clinical isolate IMC B-0922
# Protocol: as §1, §2
# [4] = tested on: Streptococcus pneumoniae IMC B-1231 (PRSP); experiment: Antimicrobial activity test (MIC), clinical isolate IMC B-1231
# Protocol: as §1, §2
# [5] = tested on: Streptococcus pneumoniae IMC B-1232 (PRSP); experiment: Antimicrobial activity test (MIC), clinical isolate IMC B-1232
# Protocol: as §1, §2
# [6] = tested on: Streptococcus pneumoniae IMC B-1233 (PRSP); experiment: Antimicrobial activity test (MIC), clinical isolate IMC B-1233
# Protocol: as §1, §2
# [7] = tested on: Streptococcus pneumoniae IMC B-1234 (PRSP); experiment: Antimicrobial activity test (MIC), clinical isolate IMC B-1234
# Protocol: as §1, §2
# [8] = tested on: Streptococcus pneumoniae IMC B-1235 (PRSP); experiment: Antimicrobial activity test (MIC), clinical isolate IMC B-1235
# Protocol: as §1, §2
# [9] = tested on: Streptococcus pneumoniae IMC B-1236 (PRSP); experiment: Antimicrobial activity test (MIC), clinical isolate IMC B-1236
# Protocol: as §1, §2
# [10] = tested on: Streptococcus pneumoniae IMC B-0921 (PSSP); experiment: Antimicrobial activity test (MIC), clinical isolate IMC B-0921
# Protocol: as §1, §2
# [11] = tested on: Streptococcus pneumoniae IMC B-1229 (PSSP); experiment: Antimicrobial activity test (MIC), clinical isolate IMC B-1229
# Protocol: as §1, §2
# [12] = PRSP clinical isolate IMC B-0919
# [13] = PRSP clinical isolate IMC B-0920
# [14] = PRSP clinical isolate IMC B-0922
# [15] = PRSP clinical isolate IMC B-1231
# [16] = PRSP clinical isolate IMC B-1232
# [17] = PRSP clinical isolate IMC B-1233
# [18] = PRSP clinical isolate IMC B-1234
# [19] = PRSP clinical isolate IMC B-1235
# [20] = PRSP clinical isolate IMC B-1236
# [21] = PSSP clinical isolate IMC B-0921
# [22] = PSSP clinical isolate IMC B-1229
# [23] = Streptococcus pneumoniae IMC B-0919, PRSP
# [24] = Streptococcus pneumoniae IMC B-0920, PRSP
# [25] = Streptococcus pneumoniae IMC B-0922, PRSP
# [26] = Streptococcus pneumoniae IMC B-1231, PRSP
# [27] = Streptococcus pneumoniae IMC B-1232, PRSP
# [28] = Streptococcus pneumoniae IMC B-1233, PRSP
# [29] = Streptococcus pneumoniae IMC B-1234, PRSP
# [30] = Streptococcus pneumoniae IMC B-1235, PRSP
# [31] = Streptococcus pneumoniae IMC B-1236, PRSP
# [32] = Streptococcus pneumoniae IMC B-0921, PSSP
# [33] = Streptococcus pneumoniae IMC B-1229, PSSP
# [34] = Streptococcus pneumoniae IMC B-0919, PRSP, read-out: MIC
# [35] = Streptococcus pneumoniae IMC B-0920, PRSP, read-out: MIC
# [36] = Streptococcus pneumoniae IMC B-0922, PRSP, read-out: MIC
# [37] = Streptococcus pneumoniae IMC B-1231, PRSP, read-out: MIC
# [38] = Streptococcus pneumoniae IMC B-1232, PRSP, read-out: MIC
# [39] = Streptococcus pneumoniae IMC B-1233, PRSP, read-out: MIC
# [40] = Streptococcus pneumoniae IMC B-1234, PRSP, read-out: MIC
# [41] = Streptococcus pneumoniae IMC B-1235, PRSP, read-out: MIC
# [42] = Streptococcus pneumoniae IMC B-1236, PRSP, read-out: MIC
# [43] = Streptococcus pneumoniae IMC B-0921, PSSP, read-out: MIC
# [44] = Streptococcus pneumoniae IMC B-1229, PSSP, read-out: MIC
structure (smiles),measurement,setting,value
CCC1OC(=O)CCC(C)C(OC2OC(C)CC(N(C)C)C2O)C(CC=O)CC(C)C(=O)C=CC(C)=CC1CN(C)C (centres unmarked) [MKT-3101],MIC,[1]; [12],0.78 µg/mL
same,MIC,[2]; [13],0.78 µg/mL
same,MIC,[3]; [14],0.39 µg/mL
same,MIC,[4]; [15],12.5 µg/mL
same,MIC,[5]; [16],0.2 µg/mL
same,MIC,[6]; [17],0.2 µg/mL
same,MIC,[7]; [18],0.2 µg/mL
same,MIC,[8]; [19],25 µg/mL
same,MIC,[9]; [20],50 µg/mL
same,MIC,[10]; [21],0.2 µg/mL
same,MIC,[11]; [22],0.2 µg/mL
CCC1OC(=O)CCC(C)C(OC2OC(C)CC(N(C)C)C2O)C(CC=O)CC(C)C(=O)C=CC(C)=CC1CNC(C)=O (centres unmarked) [MKT-3201],MIC,[1]; [12],0.78 µg/mL
same,MIC,[2]; [13],0.78 µg/mL
same,MIC,[3]; [14],0.39 µg/mL
same,MIC,[4]; [15],1.56 µg/mL
same,MIC,[5]; [16],0.39 µg/mL
same,MIC,[6]; [17],0.39 µg/mL
same,MIC,[7]; [18],0.39 µg/mL
same,MIC,[8]; [19],12.5 µg/mL
same,MIC,[9]; [20],50 µg/mL
same,MIC,[10]; [21],0.2 µg/mL
same,MIC,[11]; [22],0.2 µg/mL
CCC1OC(=O)CCC(C)C(OC2OC(C)CC(N(C)C)C2O)C(CC=O)CC(C)C(=O)C=CC(C)=CC1CNC(=O)Cc1cccnc1 (centres unmarked) [MKT-3216],MIC,[1]; [23],0.10 µg/mL
same,MIC,[2]; [24],0.10 µg/mL
same,MIC,[3]; [25],0.10 µg/mL
same,MIC,[4]; [26],6.25 µg/mL
same,MIC,[5]; [27],0.05 µg/mL
same,MIC,[6]; [28],0.05 µg/mL
same,MIC,[7]; [29],0.05 µg/mL
same,MIC,[8]; [30],12.5 µg/mL
same,MIC,[9]; [31],12.5 µg/mL
same,MIC,[10]; [32],0.10 µg/mL
same,MIC,[11]; [33],0.10 µg/mL
CCC1OC(=O)CCC(C)C(OC2OC(C)CC(N(C)C)C2O)C(CC=O)CC(C)C(=O)C=CC(C)=CC1CN(C)CCc1ccc(OC)c(OC)c1 (centres unmarked) [MKT-6104],MIC,[1]; [12],1.56 µg/mL
same,MIC,[2]; [13],0.78 µg/mL
same,MIC,[3]; [14],0.78 µg/mL
same,MIC,[4]; [15],50 µg/mL
same,MIC,[5]; [16],1.56 µg/mL
same,MIC,[6]; [17],1.56 µg/mL
same,MIC,[7]; [18],1.56 µg/mL
same,MIC,[8]; [19],25 µg/mL
same,MIC,[9]; [20],25 µg/mL
same,MIC,[10]; [21],0.78 µg/mL
same,MIC,[11]; [22],1.56 µg/mL
CCC1OC(=O)CCC(C)C(OC2OC(C)CC(N(C)C)C2O)C(CC=O)CC(C)C(=O)C=CC(C)=CC1CN1CCC(CCO)CC1 (centres unmarked) [MKT-6113],MIC,[1]; [23],0.78 µg/mL
same,MIC,[2]; [24],1.56 µg/mL
same,MIC,[3]; [25],1.56 µg/mL
same,MIC,[4]; [26],>50 µg/mL
same,MIC,[5]; [27],1.56 µg/mL
same,MIC,[6]; [28],0.78 µg/mL
same,MIC,[7]; [29],0.39 µg/mL
same,MIC,[8]; [30],>50 µg/mL
same,MIC,[9]; [31],>50 µg/mL
same,MIC,[10]; [32],0.20 µg/mL
same,MIC,[11]; [33],0.39 µg/mL
"CC[C@H]1OC(=O)[C@H](C)[C@@H](O[C@H]2C[C@@](C)(OC)[C@@H](O)[C@H](C)O2)[C@H](C)[C@@H](O[C@@H]2O[C@H](C)C[C@H](N(C)C)[C@H]2O)[C@](C)(OC)C[C@@H](C)C(=O)[C@H](C)[C@@H](O)[C@]1(C)O [clarithromycin, reference compound]",MIC,[1]; [34],0.2 µg/mL
same,MIC,[2]; [35],0.2 µg/mL
same,MIC,[3]; [36],0.2 µg/mL
same,MIC,[4]; [37],25 µg/mL
same,MIC,[5]; [38],0.39 µg/mL
same,MIC,[6]; [39],0.05 µg/mL
same,MIC,[7]; [40],0.05 µg/mL
same,MIC,[8]; [41],> 100 µg/mL
same,MIC,[9]; [42],> 100 µg/mL
same,MIC,[10]; [43],0.1 µg/mL
same,MIC,[11]; [44],0.1 µg/mL
"CC[C@H]1OC(=O)C[C@@H](O)[C@H](C)[C@@H](O[C@@H]2O[C@H](C)[C@@H](O[C@H]3C[C@@](C)(O)[C@@H](O)[C@H](C)O3)[C@H](N(C)C)[C@H]2O)[C@@H](CC=O)C[C@@H](C)C(=O)/C=C/C(C)=C/[C@@H]1CO[C@@H]1O[C@H](C)[C@@H](O)[C@@H](OC)[C@H]1OC [tylosin, reference compound]",MIC,[1]; [34],0.39 µg/mL
same,MIC,[2]; [35],0.39 µg/mL
same,MIC,[3]; [36],0.39 µg/mL
same,MIC,[4]; [37],100 µg/mL
same,MIC,[5]; [38],0.39 µg/mL
same,MIC,[6]; [39],0.78 µg/mL
same,MIC,[7]; [40],0.39 µg/mL
same,MIC,[8]; [41],> 100 µg/mL
same,MIC,[9]; [42],> 100 µg/mL
same,MIC,[10]; [43],0.39 µg/mL
same,MIC,[11]; [44],0.39 µg/mL
